According to patent US20080070867A1, “2-Imidazolone and 2-Imidazolidinone Heterocyclic Inhibitors of Tyrosine Phosphatases” (Metabasis Therapeutics, Inc., priority 2005, published 2008):

Molecular target: T1, Human recombinant PTP-1B (Homo sapiens, UniProt P18031)
T1 construct: Human recombinant PTP-1B, containing amino acids 1-321, fused to GST enzyme; GST (glutathione S-transferase)
T1 sequence (P18031 1-321): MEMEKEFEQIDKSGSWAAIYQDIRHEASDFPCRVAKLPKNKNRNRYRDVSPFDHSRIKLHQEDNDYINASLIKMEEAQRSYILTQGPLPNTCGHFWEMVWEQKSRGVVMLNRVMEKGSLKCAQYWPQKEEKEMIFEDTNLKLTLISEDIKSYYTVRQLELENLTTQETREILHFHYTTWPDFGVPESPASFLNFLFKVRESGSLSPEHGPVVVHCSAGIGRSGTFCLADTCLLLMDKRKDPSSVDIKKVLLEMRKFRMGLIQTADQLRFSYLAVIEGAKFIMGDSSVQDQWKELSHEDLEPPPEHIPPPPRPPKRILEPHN
Assay: Assay for PTP-1B Activity (pNPP substrate)
Format: biochemical
Conditions: human recombinant PTP-1B (1-321) GST fusion, 2 mM pNPP, pH 7.4, 30° C., 20 min; read-out: Activity Code (IC50 range)
How it was run: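 GST-fused human PTP-1B (aa 1-321) hydrolysed 2 mM pNPP in 50 mM HEPES pH 7.4, 100 mM NaCl, 2 mM EDTA, 3 mM DTT for 20 min at 30 °C, after a 2 min compound premix. K2CO3 stopped the reaction, with pNP read at 405 nm. Initial rate was plotted against inhibitor concentration.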

Q: With `COc1cccc(Cn2ccn(Cc3ccc(C(F)(F)P(=O)(O)O)c(Br)c3)c2=O)c1` [Compound 60, ({2-Bromo-4-[3-(3-methoxy-benzyl)-2-oxo-2,3-dihydro-imidazol-1-ylmethyl]-phenyl}-difluoro-methyl)-phosphonic acid] as the compound, how does the IC50 read?
A: 2500 to 25000 nM

Q: How did the IC50 turn out when `CCOC(=O)c1ccc(-n2ccn(Cc3ccc(C(F)(F)P(=O)(O)O)c(Br)c3)c2=O)cc1` [Compound 61, 4-{3-[3-Bromo-4-(difluoro-phosphono-methyl)-benzyl]-2-oxo-2,3-dihydro-imidazol-1-yl}-benzoic acid ethyl ester] was run?
A: 250 to 2500 nM

Q: With `COC(=O)c1cccc(-c2cn(C3CC3)c(=O)n2Cc2ccc(C(F)(F)P(=O)(O)O)c(Br)c2)c1` [Compound 62, 3-{3-[3-Bromo-4-(difluoro-phosphono-methyl)-benzyl]-1-cyclopropyl-2-oxo-2,3-dihydro-1H-imidazol-4-yl}-benzoic acid methyl ester] as the compound, how does the IC50 read?
A: 250 to 2500 nM

Q: How did the IC50 turn out when `O=C(O)c1cccc(-c2cn(C3CC3)c(=O)n2Cc2ccc(C(F)(F)P(=O)(O)O)c(Br)c2)c1` [Compound 63, 3-{3-[3-Bromo-4-(difluoro-phosphono-methyl)-benzyl]-1-cyclopropyl-2-oxo-2,3-dihydro-1H-imidazol-4-yl}-benzoic acid] was run?
A: 250 to 2500 nM

Q: With `CC(C)(C)C(=O)OCOP(=O)(O)C(F)(F)c1ccc(Cn2c(-c3ccc(S(C)(=O)=O)cc3)c[nH]c2=O)cc1Br` [Compound 64, 2,2-Dimethyl-propionic acid ({2-bromo-4-[5-(4-methanesulfonyl-phenyl)-2-oxo-2,3-dihydro-imidazol-1-ylmethyl]-phenyl}-difluoro-methyl)-hydroxy phosphinoyloxymethyl ester] as the compound, how does the IC50 read?
A: 2500 to 25000 nM

Q: Which IC50 does the source give for `CC(C)OC(=O)OC(C)OP(=O)(O)C(F)(F)c1ccc(Cn2c(-c3ccc(S(C)(=O)=O)cc3)c[nH]c2=O)cc1Br` (stereo not drawn) [Compound 65, ({2-Bromo-4-[5-(4-methanesulfonyl-phenyl)-2-oxo-2,3-dihydro-imidazol-1-ylmethyl]phenyl}-difluoro-methyl) phosphonic acid mono-(1-isopropoxy-carbonyloxy-ethyl) ester] here?
A: 2500 to 25000 nM

Q: For `CCOC(=O)n1cc(-c2ccc(C(=O)OC)cc2)n(Cc2ccc(C(F)(F)P(=O)(O)OCOC(=O)C(C)(C)C)c(Br)c2)c1=O` [Compound 66, 3-(3-Bromo-4-{[(2,2-dimethyl-propionyloxy-methoxy)-hydroxy-phosphoryl]-difluoro-methyl}-benzyl)-4-(4-methoxycarbonyl-phenyl)-2-oxo-2,3-dihydro-imidazole-1-carboxylic acid ethyl ester], which IC50 is on record?
A: > 25000 nM

Q: For `COC(=O)c1ccc(-c2cn(Cc3ccc(C(F)(F)P(=O)(O)O)c(Br)c3)c(=O)n2Cc2ccccc2)cc1` [Compound 67, 4-{3-Benzyl-1-[3-bromo-4-(difluoro-phosphono-methyl)-benzyl]-2-oxo-2,3-dihydro-1H-imidazol-4-yl}-benzoic acid methyl ester], which IC50 is on record?
A: 250 to 2500 nM

Q: How did the IC50 turn out when `O=C(O)c1ccc(-c2cn(Cc3ccc(C(F)(F)P(=O)(O)O)c(Br)c3)c(=O)n2Cc2ccccc2)cc1` [Compound 68, 4-{3-Benzyl-1-[3-bromo-4-(difluoro-phosphono-methyl)-benzyl]-2-oxo-2,3-dihydro-1H-imidazol-4-yl}-benzoic acid] was run?
A: 250 to 2500 nM

Q: For `Cn1cc(-c2ccc(S(C)(=O)=O)cc2)n(Cc2ccc(C(F)(F)P(=O)(O)OCOC(=O)C(C)(C)C)c(Br)c2)c1=O` [Compound 69, 2,2-Dimethyl-propionic acid ({2-bromo-4-[5-(4-methanesulfonyl-phenyl)-3-methyl-2-oxo-2,3-dihydro-imidazol-1-ylmethyl]-phenyl}-difluoro-methyl)-hydroxy-phosphinoyloxymethyl ester], which IC50 is on record?
A: 2500 to 25000 nM

Q: Which IC50 does the source give for `CC(C)OC(=O)OC(C)OP(=O)(O)C(F)(F)c1ccc(Cn2c(-c3ccc(S(C)(=O)=O)cc3)cn(C)c2=O)cc1Br` (stereo not drawn) [Compound 70, ({2-Bromo-4-[5-(4-methanesulfonyl-phenyl)-3-methyl-2-oxo-2,3-dihydro-imidazol-1-ylmethyl]-phenyl}-difluoro-methyl)-phosphonic acid mono-(1-isopropoxy-carbonyloxy-ethyl) ester] here?
A: > 25000 nM

Q: For `O=c1n(Cc2ccccc2)ccn1Cc1ccc(C(F)(F)P(=O)(O)O)c(Br)c1` [Compound 71, {[4-(3-Benzyl-2-oxo-2,3-dihydro-imidazol-1-ylmethyl)-2-bromo-phenyl]-difluoro-methyl}-phosphonic acid], which IC50 is on record?
A: 2500 to 25000 nM

Q: For `CC(C)OC(=O)OC(C)OP(=O)(O)C(F)(F)c1ccc(Cn2c(-c3ccc(Cl)cc3)cn(Cc3ccccc3)c2=O)cc1Br` (stereo not drawn) [Compound 72, ({4-[3-Benzyl-5-(4-chloro-phenyl)-2-oxo-2,3-dihydro-imidazol-1-ylmethyl]-2-bromo-phenyl}-difluoro-methyl)-phosphonic acid mono-(1-isopropoxy-carbonyloxy-ethyl) ester], which IC50 is on record?
A: 2500 to 25000 nM

Q: How did the IC50 turn out when `CCOC(=O)C(C)(C)Oc1ccc(-c2cn(C3CC3)c(=O)n2Cc2ccc(C(F)(F)P(=O)(O)O)c(Br)c2)cc1` [Compound 73, 2-(4-{3-[3-Bromo-4-(difluoro-phosphono-methyl)-benzyl]-1-cyclopropyl-2-oxo-2,3-dihydro-1H-imidazol-4-yl}-phenoxy)-2-methyl-propionic acid ethyl ester] was run?
A: 100 to 249 nM

Q: For `CC(C)(Oc1ccc(-c2cn(C3CC3)c(=O)n2Cc2ccc(C(F)(F)P(=O)(O)O)c(Br)c2)cc1)C(=O)O` [Compound 74, 2-(4-{3-[3-Bromo-4-(difluoro-phosphono-methyl)-benzyl]-1-cyclopropyl-2-oxo-2,3-dihydro-1H-imidazol-4-yl}-phenoxy)-2-methyl-propionic acid], which IC50 is on record?
A: < 99 nM

Q: How did the IC50 turn out when `CCOC(=O)n1cc(-c2ccc(C#N)cc2)n(Cc2ccc(C(F)(F)P(=O)(O)O)c(Br)c2)c1=O` [Compound 75, 3-[3-Bromo-4-(difluoro-phosphono-methyl)-benzyl]-4-(4-cyano-phenyl)-2-oxo-2,3-dihydro-imidazole-1-carboxylic acid ethyl ester] was run?
A: 100 to 249 nM

Q: `CC(C)(C)C(=O)OCOP(=O)(O)C(F)(F)c1ccc(Cn2c(-c3ccc(S(C)(=O)=O)cc3)cn(Cc3ccccc3)c2=O)cc1Br` [Compound 76, 2,2-Dimethyl-propionic acid ({4-[3-benzyl-5-(4-methanesulfonyl-phenyl)-2-oxo-2,3-dihydro-imidazol-1-ylmethyl]-2-bromo-phenyl}-difluoro-methyl)-hydroxy-phosphinoyloxymethyl ester] was tested. Which IC50 did it give?
A: 250 to 2500 nM

Q: Which IC50 does the source give for `CC(C)(C)C(=O)OCOC(=O)COc1ccc(-c2cn(C3CC3)c(=O)n2Cc2ccc(C(F)(F)P(=O)(O)OCOC(=O)C(C)(C)C)c(Br)c2)cc1` [Compound 77, 2,2-Dimethyl-propionic acid 2-{4-[3-(3-bromo-4-{[(2,2-dimethyl-propionyloxy-methoxy)-hydroxy-phosphoryl]-difluoro-methyl}-benzyl)-1-cyclopropyl-2-oxo-2,3-dihydro-1H-imidazol-4-yl]-phenoxy}-acetoxymethyl ester] here?
A: 250 to 2500 nM

Q: `N#Cc1ccc(-c2c[nH]c(=O)n2Cc2ccc(C(F)(F)P(=O)(O)O)c(Br)c2)cc1` [Compound 78, ({2-Bromo-4-[5-(4-cyano-phenyl)-2-oxo-2,3-dihydro-imidazol-1-ylmethyl]-phenyl}-difluoro-methyl)-phosphonic acid] was tested. Which IC50 did it give?
A: 100 to 249 nM

Q: For `CC(C)OC(=O)OC(C)OP(=O)(O)C(F)(F)c1ccc(Cn2c(-c3ccc(S(C)(=O)=O)cc3)cn(Cc3ccccc3)c2=O)cc1Br` (stereo not drawn) [Compound 79, ({4-[3-Benzyl-5-(4-methanesulfonyl-phenyl)-2-oxo-2,3-dihydro-imidazol-1-ylmethyl]-2-bromo-phenyl}-difluoro-methyl)-phosphonic acid mono-(1-isopropoxy-carbonyloxy-ethyl) ester], which IC50 is on record?
A: 100 to 249 nM

Q: How did the IC50 turn out when `Cn1cc(-c2ccc(C(=O)OCOC(=O)C(C)(C)C)cc2)n(Cc2ccc(C(F)(F)P(=O)(O)OCOC(=O)C(C)(C)C)c(Br)c2)c1=O` [Compound 80, 4-[3-(3-Bromo-4-{[(2,2-dimethyl-propionyloxy-methoxy)-hydroxy-phosphoryl]-difluoro-methyl}-benzyl)-1-methyl-2-oxo-2,3-dihydro-1H-imidazol-4-yl]-benzoic acid 2,2-dimethyl-propionyloxymethyl ester] was run?
A: 2500 to 25000 nM

Q: With `COC(=O)c1ccc(Cn2ccn(Cc3ccc(C(F)(F)P(=O)(O)O)c(Br)c3)c2=O)cc1` [Compound 81, 4-{3-[3-Bromo-4-(difluoro-phosphono-methyl)-benzyl]-2-oxo-2,3-dihydro-imidazol-1-ylmethyl}-benzoic acid methyl ester] as the compound, how does the IC50 read?
A: 250 to 2500 nM

Q: How did the IC50 turn out when `COC(=O)COc1ccc(Cn2ccn(Cc3ccc(C(F)(F)P(=O)(O)O)c(Br)c3)c2=O)cc1Cl` [Compound 82, (4-{3-[3-Bromo-4-(difluoro-phosphono-methyl)-benzyl]-2-oxo-2,3-dihydro-imidazol-1-ylmethyl}-2-chloro-phenoxy)-acetic acid methyl ester] was run?
A: 250 to 2500 nM

Q: How did the IC50 turn out when `O=C(O)COc1ccc(Cn2ccn(Cc3ccc(C(F)(F)P(=O)(O)O)c(Br)c3)c2=O)cc1Cl` [Compound 83, (4-{3-[3-Bromo-4-(difluoro-phosphono-methyl)-benzyl]-2-oxo-2,3-dihydro-imidazol-1-ylmethyl}-2-chloro-phenoxy)-acetic acid] was run?
A: 250 to 2500 nM
